System: free iron
Test: Free iron (Phen Green SK)
Type: cell-based, rat
Settings: in vitro cultured cell
Method: Isolated mucosal cells from both control and indomethacin-treated cultured gastric mucosa were used for free iron localization using Phen Green SK, an iron-sensitive fluorescence probe following the protocol as described in the product catalogue (Maity, P.; et al. J. Biol. Chem. 284:3058-3068; 2009). Cells were first incubated with Phen Green SK (20 μm) for 15 min at 37° C. in the dark. After the incubation, cells were washed with HBSS and used for fluorescence microscopy (Leica, DM-2500, Leica Microsystems). Staining of pheen Green SK was visualized using green filter.

SMILES: O=C(NCCc1c[nH]c2ccc(O)cc12)c1cc(O)c(O)c(O)c1 [Compound 3a, 3,4,5-trihydroxy-N-(2-(5-hydroxy-1H-indol-3-yl)ethyl)benzamide]
- intramitochondrial iron chelation (Phen Green SK): chelates the intramitochondrial iron

Source: patent US8901317B2, “Tryptamine derivatives, their preparation and their use in gastropathy” (Council of Scientific & Industrial Research, priority 2010, dated 2014)
